From patent US8288426B2, “Pesticidal composition comprising fenamidone and an insecticide compound” (Bayer CropScience AG, priority 2006, dated 2012)

Legend:
Format in all cases: in vivo
Conditions in all cases: mortality
Spodoptera frugiperda = Spodoptera frugiperda - test (cabbage leaf dip, larvae)
Description: (§1) To produce a suitable preparation of active compound, 1 part by weight of active compound is mixed with the stated amount of solvent and emulsifier, and the concentrate is diluted with emulsifier-containing water to the desired concentration.
Cabbage leaves (Brassica oleracea) are treated by being dipped into the preparation of the active compound of the desired concentration and are infested with larvae of the fall army worm (Spodoptera frugiperda) as long as the leaves are still moist.
(§2) After the specified period of time, the mortality in % is determined. 100% means that all the caterpillars have been killed; 0% means that none of the caterpillars have been killed.

Plutella xylostella = Plutella xylostella - test (cabbage leaf dip, larvae)
Description: as §1
Cabbage leaves (Brassica oleracea) are treated by being dipped into the preparation of the active compound of the desired concentration and are infested with larvae of the diamond back moth (Plutella xylostella) as long as the leaves are still moist.
as §2

Spodoptera exigua = Spodoptera exigua - test (cabbage leaf dip, larvae)
Description: as §1
Cabbage leaves (Brassica oleracea) are treated by being dipped into the preparation of the active compound of the desired concentration and are infested with larvae of the beet army worm (Spodoptera exigua) as long as the leaves are still moist.
as §2

**Q.** Which “Efficacy in % after 4d” value (Spodoptera frugiperda; 4 ppm) does the source give for `CN/C(=N\[N+](=O)[O-])NCc1cnc(Cl)s1` [Clothianidin, clothianidin] here?
**A.** 0%

**Q.** And the “Efficacy in % after 4d” value (Plutella xylostella; 4 ppm, second part of Table A)?
**A.** 0%

**Q.** Which results are given for `CSC1=N[C@@](C)(c2ccccc2)C(=O)N1Nc1ccccc1` [Fenamidone, fenamidone]?
**A.** Efficacy in % after 4d (Spodoptera frugiperda; 200 ppm): 0%; Efficacy in % after 3d (Spodoptera exigua; 100 ppm): 0%; Efficacy in % after 3d (Spodoptera exigua; 200 ppm): 0%; Efficacy in % after 4d (Plutella xylostella; 200 ppm, first part of Table A): 35%; Efficacy in % after 4d (Plutella xylostella; 200 ppm, second part of Table A): 65%; Efficacy in % after 4d (Plutella xylostella; 500 ppm, first part of Table A): 75%

**Q.** Which results are given for `O=[N+]([O-])NC1=NCCN1Cc1ccc(Cl)nc1` [Imidacloprid, imidacloprid]?
**A.** Efficacy in % after 3d (Spodoptera exigua; 20 ppm): 0%; Efficacy in % after 4d (Plutella xylostella; 20 ppm, first part of Table A): 5%

**Q.** With `N#C/N=C1\SCCN1Cc1ccc(Cl)nc1` [Thiacloprid, thiacloprid] as the compound, how does the “Efficacy in % after 3d” value (Spodoptera exigua; 100 ppm) read?
**A.** 10%

**Q.** With `CN1COCN(Cc2cnc(Cl)s2)/C1=N\[N+](=O)[O-]` [Thiamethoxam, thiamethoxam] as the compound, how does the “Efficacy in % after 4d” value (Plutella xylostella; 4 ppm, first part of Table A) read?
**A.** 0%
